This is an account of results in ChEMBL document CHEMBL1201862, “PubChem BioAssay data set” (2004).

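Five compound concentrations were applied to cells in 96-well plates for 48 hours; endpoints were derived by simple linear interpolation of the resulting dose-response curve. Abbreviation: GI50, concentration required for 50% inhibition of growth.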 Activity calls are given as the source filed them. Cut-off read from the data, not from the text of the source: active = GI50 up to about 1.1 µM and inactive = higher.

Among the test systems are A498; 786-0; OVCAR-3; UACC-257; RXF 393; OVCAR-8; HL-60; TK-10; NCI-H460; IGROV-1; SK-MEL-2; SF-268; U-251; KM12; UACC-62; OVCAR-4; MDA-N; EKVX.
What all share (assay): NCI tumour cell line growth inhibition, 48 h

With `CC12CCC(C(=O)OC1=O)C2(C)C` (configuration not stated), the GI50 in the experiment with A498 is > 100 µM (inactive); with 786-0, > 100 µM (inactive); with OVCAR-3 it was > 100 µM (inactive); with UACC-257 it was 8.81 µM (inactive); with RXF 393, > 100 µM (inactive); with OVCAR-8, > 100 µM (inactive). In addition, the GI50 with HL-60 is 32.1 µM (inactive); in the experiment on TK-10, > 100 µM (inactive); in the experiment on NCI-H460 it was > 100 µM (inactive); in the experiment on IGROV-1, > 100 µM (inactive); in the experiment with SK-MEL-2 it was 28.7 µM (inactive); in the experiment with SF-268 it was > 100 µM (inactive). For the same compound, the GI50 with U-251, with KM12, in the experiment on UACC-62, with OVCAR-4 and with MDA-N was > 100 µM (inactive) in each case.

For the compound `CCOc1ccccc1NC(=O)CC1Sc2ccccc2NC1=O` (configuration not stated), the GI50 was > 100 µM (inactive) in the experiment on 786-0; 37.5 µM (inactive) in the experiment with OVCAR-3; > 100 µM (inactive) in the experiment on UACC-257; > 100 µM (inactive) in the experiment with RXF 393; 58.3 µM (inactive) in the experiment on OVCAR-8; 23.9 µM (inactive) with HL-60. Further, the GI50 is > 100 µM (inactive) in the experiment with TK-10; 44.1 µM (inactive) in the experiment with NCI-H460; 45.5 µM (inactive) in the experiment with IGROV-1; 45.8 µM (inactive) with SK-MEL-2; 41.5 µM (inactive) in the experiment on EKVX; > 100 µM (inactive) in the experiment with SF-268. Besides, the GI50 in the experiment on U-251 was 79.4 µM (inactive); in the experiment with KM12, 38.1 µM (inactive); in the experiment on UACC-62, 36.2 µM (inactive); in the experiment with OVCAR-4, 68.9 µM (inactive).

`CN1C(c2ccccc2)CC(=Nc2ccccc2)CC1c1ccccc1` (configuration not stated): the GI50 with 786-0 was 14.2 µM (inactive); in the experiment with OVCAR-3, 8.93 µM (inactive); with UACC-257, 10.4 µM (inactive); in the experiment with RXF 393 it was 16.6 µM (inactive); in the experiment on OVCAR-8, 6.97 µM (inactive); in the experiment with HL-60 it was 2.61 µM (inactive). Further, the GI50 was 19.2 µM (inactive) in the experiment on TK-10; 13.5 µM (inactive) in the experiment with NCI-H460; 12.6 µM (inactive) in the experiment with IGROV-1; 16.2 µM (inactive) with EKVX; 10.8 µM (inactive) in the experiment on SF-268; 6.82 µM (inactive) with U-251. Also, the GI50 with OVCAR-4 is 10.4 µM (inactive).

As to `Cc1ccc(NC(=O)CC(=O)n2nc(C)c(/N=N/c3ccc(S(=O)(=O)CCOS(=O)(=O)O)cc3)c2C)cc1`, the GI50 was > 100 µM (inactive) with A498; > 100 µM (inactive) in the experiment with 786-0; > 100 µM (inactive) in the experiment with OVCAR-3; 80 µM (inactive) in the experiment with UACC-257; > 100 µM (inactive) with RXF 393; > 100 µM (inactive) with OVCAR-8. Also, the GI50 in the experiment with HL-60, in the experiment with TK-10, with NCI-H460, in the experiment with IGROV-1, in the experiment on SK-MEL-2 and with EKVX was > 100 µM (inactive) each time. The GI50 in the experiment with SF-268, in the experiment on U-251, in the experiment with KM12, with UACC-62 and with MDA-N was > 100 µM (inactive) each time.

Turning to `CCOC(=O)C(Cc1cn(C(C)=O)c2ccccc12)P(=O)(OCC)OCC` (configuration not stated), the GI50 is > 100 µM (inactive) with OVCAR-3; > 100 µM (inactive) in the experiment on UACC-257; > 100 µM (inactive) in the experiment on OVCAR-8; > 100 µM (inactive) in the experiment on TK-10; 55.1 µM (inactive) with NCI-H460; > 100 µM (inactive) in the experiment on IGROV-1. Also, the GI50 in the experiment on SK-MEL-2, in the experiment with U-251, in the experiment on OVCAR-4 and in the experiment with MDA-N was > 100 µM (inactive) in each case.

Regarding `O=C(C#CP(=O)(O)c1ccccc1)c1ccccc1`, the GI50 in the experiment on A498, with 786-0, in the experiment on OVCAR-3, in the experiment on UACC-257, in the experiment with OVCAR-8 and in the experiment with TK-10 was > 100 µM (inactive) throughout. In addition, the GI50 in the experiment with NCI-H460, in the experiment on IGROV-1, in the experiment on SK-MEL-2, with EKVX, in the experiment on SF-268 and in the experiment with U-251 was > 100 µM (inactive) each time. The GI50 in the experiment with KM12, in the experiment on UACC-62, in the experiment with OVCAR-4 and in the experiment with MDA-N was > 100 µM (inactive) each time.

For `COc1cc2c(cc1OC)C1C3CCCCC3CCN1CC2` (configuration not stated), the GI50 in the experiment with A498 was > 100 µM (inactive); in the experiment on 786-0 it was 88.5 µM (inactive); with OVCAR-3 it was 79.4 µM (inactive); in the experiment with UACC-257, > 100 µM (inactive); with RXF 393 it was 27 µM (inactive); in the experiment with OVCAR-8 it was > 100 µM (inactive). For the same compound, the GI50 in the experiment on HL-60, in the experiment with TK-10, in the experiment with NCI-H460, in the experiment on IGROV-1, in the experiment on SK-MEL-2 and in the experiment with EKVX was > 100 µM (inactive) throughout. For the same compound, the GI50 in the experiment with SF-268, with U-251, in the experiment with KM12, with UACC-62 and with OVCAR-4 was > 100 µM (inactive) each time.

As to `C/C(=N\Nc1nnc(S)n1N)c1c(O)cc(C)oc1=O`, the GI50 with A498, with 786-0, in the experiment with UACC-257, in the experiment with OVCAR-8, with HL-60 and in the experiment with TK-10 was > 100 µM (inactive) each time. Moreover, the GI50 with NCI-H460, in the experiment with SK-MEL-2, in the experiment on EKVX, in the experiment with SF-268, in the experiment with U-251 and in the experiment on KM12 was > 100 µM (inactive) throughout. For the same compound, the figures for the GI50 with UACC-62 and with OVCAR-4 were > 100 µM (inactive) and 99.3 µM (inactive), respectively.

As for `C=C(CCOC)CCC1CCCCC(=C)[C@H]1OC(C)=O` (some centres not stated), the GI50 was > 100 µM (inactive) in the experiment on A498; > 100 µM (inactive) in the experiment on 786-0; > 100 µM (inactive) in the experiment with OVCAR-3; > 100 µM (inactive) in the experiment on UACC-257; > 100 µM (inactive) in the experiment with OVCAR-8; 50.7 µM (inactive) in the experiment on HL-60. Besides, the GI50 with TK-10, in the experiment on NCI-H460, in the experiment with IGROV-1, in the experiment on SK-MEL-2, in the experiment with EKVX and in the experiment with SF-268 was > 100 µM (inactive) each time. For the same compound, the GI50 in the experiment with U-251, in the experiment on KM12, in the experiment with UACC-62, in the experiment on OVCAR-4 and in the experiment with MDA-N was > 100 µM (inactive) in each case.

For the compound `O=C(CCN1CCOCC1)C(=Cc1ccccc1)C(=O)CCN1CCOCC1`, the GI50 in the experiment on A498 is 17.3 µM (inactive); in the experiment with OVCAR-3, 3.97 µM (inactive); in the experiment on UACC-257 it was 1.79 µM (inactive); in the experiment with RXF 393, 1.68 µM (inactive); in the experiment with OVCAR-8 it was 2.91 µM (inactive); in the experiment with HL-60, 1.53 µM (inactive). Besides, the GI50 in the experiment with NCI-H460 is 12.8 µM (inactive); in the experiment with IGROV-1, 6.78 µM (inactive); in the experiment on SK-MEL-2 it was 8.34 µM (inactive); with EKVX, 2.21 µM (inactive); in the experiment with SF-268, 6.85 µM (inactive); with U-251, 14.1 µM (inactive). The results for the GI50 with KM12, in the experiment with UACC-62 and in the experiment on OVCAR-4 were 5.01 µM (inactive), 2.31 µM (inactive) and 5.28 µM (inactive), respectively.

`NC(=O)c1ncn(CCN2CCN(C(=O)NCCCCCCNC(=O)N3CCN(CCn4cnc(C(N)=O)c4N)CC3)CC2)c1N`: the GI50 with 786-0, in the experiment with OVCAR-3, in the experiment on UACC-257, with RXF 393, with OVCAR-8 and in the experiment on HL-60 was > 100 µM (inactive) throughout. Moreover, the GI50 in the experiment on TK-10, in the experiment with NCI-H460, with IGROV-1, in the experiment on SK-MEL-2, with EKVX and in the experiment with SF-268 was > 100 µM (inactive) throughout. The GI50 in the experiment with U-251, with KM12, in the experiment on UACC-62 and with OVCAR-4 was > 100 µM (inactive) each time.

For `CC1=C(C(=O)Nc2ccccc2)C(c2ccccc2Cl)C(C(=O)Nc2ccccc2)=C(C)N1`, the GI50 with A498 is 27.8 µM (inactive); with 786-0, 19.6 µM (inactive); in the experiment with OVCAR-3, 17.6 µM (inactive); with UACC-257 it was 19.4 µM (inactive); with OVCAR-8, 29.4 µM (inactive); with HL-60, < 0.01 µM (active). The GI50 in the experiment on TK-10 was 38.7 µM (inactive); in the experiment with IGROV-1, 27.9 µM (inactive); in the experiment with SK-MEL-2, 18 µM (inactive); with EKVX, 14.3 µM (inactive); in the experiment on SF-268 it was 24.4 µM (inactive); with U-251 it was 19.4 µM (inactive). The GI50 in the experiment on UACC-62 was 13.6 µM (inactive); in the experiment on OVCAR-4, 36.4 µM (inactive).

Turning to `N#CC12CC(C=O)=C(N)C1(C#N)CC(C=O)=C2N` (configuration not stated), the GI50 with A498 is > 100 µM (inactive); in the experiment on 786-0, > 100 µM (inactive); in the experiment with UACC-257, 32.3 µM (inactive); with RXF 393, 41.9 µM (inactive); in the experiment on OVCAR-8, 63.7 µM (inactive); in the experiment on HL-60, 23.7 µM (inactive). Also, the GI50 in the experiment on TK-10 was > 100 µM (inactive); in the experiment with IGROV-1 it was 71.9 µM (inactive); with SK-MEL-2 it was 24.1 µM (inactive); in the experiment on EKVX it was > 100 µM (inactive); with SF-268 it was 31.1 µM (inactive); with U-251 it was 55.3 µM (inactive). The GI50 with KM12 was 88.9 µM (inactive); in the experiment on UACC-62, 36.2 µM (inactive); with MDA-N, 32.4 µM (inactive).
